Data set [1] relates to beta-catenin transcriptional activity. The following applies: background; cited from earlier work.
In data set [2] the test system is CD34+BC cells (including those carrying T315I mutation). The following applies: background; cited from earlier work.
Data set [3] deals with eIF4G levels in brain sections from Nlgn3 knock-out mice. The data set is described as follows: Immunoblot of eIF4G in brain slices of Nlgn3 knock-out mice. On the set-up: species or system mouse. The following applies: 40 μM CGP57380 or 50 nM ETC7168. As to the method: (§1) For biochemical analyses mice were sacrificed by CO2 inhalation, the cerebellum dissected and rapidly placed in a vibratome chamber and sectioned at 300 μm in cold oxygenated aCSF (in mM: 125 NaCl, 2.5 KCl, 1 MgCl2, 2 CaCl2, 1.25 NaH2PO4, 20 Glucose, 26 NaHCO3, 95% O2/5% CO2). Slices obtained were maintained at 33° C. in oxygenated aCSF and treated with 40 μM CGP57380 or 50 nM ETC7168 for 45 mins and tissues were subsequently snap frozen in liquid nitrogen. Tissues were lysed in 25 mM Tris-HCl, 150 mM NaCl, 1% Triton, 0.2% SDS, 5 mM EDTA, 2 mM DTT, 1 mM NaF, 1 mM Na3VO4 containing protease inhibitor cocktail. The soluble fractions were analyzed by immunoblotting with primary antibodies for 24 hrs at 4° C. followed by detection with secondary antibodies for enhanced chemoluminescent detection. Impact of MNK inhibitors on autism-related behavior was tested in a knock-out mouse model for autism. Nlgn3 knock-out mouse model a human mutation identified in patients with autism^73-74. Compounds were applied in DMSO using intraperitoneal injection in adult male mice (2-4 months of age). Two injections were performed, the first 30 h and a second one 5 h before testing. Behavioral testing was performed using a well-accepted test for autism that consists of quantitative analysis of ultrasonic vocalizations emitted by male mice exposed to females in estrous^75. The apparatus consisted of an arena (40 cm×20 cm) surrounded by 30-cm-high walls made of grey plastic and equipped with a microphone and a video camera. Prior to testing, the estrous cycle of each female mouse was assessed and only females in estrous were kept for testing. Male mice were acclimatized for 3 min in the chamber. Subsequently a female in estrous was introduced in the arena, and ultrasonic vocalizations were recorded for 3 min using the Avisoft system (Avisoft Bioacoustics) with a frequency bandwidth of 30 kHz to 100 kHz. The number and length of ultrasonic vocalizations were quantified. All animal experiments were approved by the cantonal veterinary office Basel-Stadt, Switzerland.
In general terms: In western blotting, separated proteins are transferred to a membrane and probed.

Data set [4] deals with eIF4E phosphorylation in cerebellar neurons in brain sections. As to the kind of experiment: Immunoblot of phospho-eIF4E in mouse cerebellar brain slices. The conditions noted are these: 40 μM CGP57380 or 50 nM ETC7168 for 45 mins. The procedure:
as §1, with “Impact of MNK inhibitors on autism-related behavior was tested in a knock-out mouse model for autism. Nlgn3 knock-out mouse model a human mutation identified in patients with autism^73-74. Compounds were applied in DMSO using intraperitoneal injection in adult male mice (2-4 months of age). Two injections were performed, the first 30 h and a second one 5 h before testing.” left out, “The apparatus consisted of an arena (40 cm×20 cm) surrounded by 30-cm-high walls made of grey plastic and equipped with a microphone and a video camera.” left out, “Male mice were acclimatized for 3 min in the chamber.” left out, “All animal experiments were approved by the cantonal veterinary office Basel-Stadt, Switzerland.” left out

Data set [5] concerns normal CD34+ cells. The following applies: background; cited from earlier work.
Data set [6] has as its system BC CD34+ CML cells. The following applies: background; cited from earlier work.
Data set [7] deals with normal cord blood CD34+ cells. The conditions noted are these: background; cited from earlier work.
Data set [8] relates to patient-derived BC cells in NSG mice. The following applies: 40 mg/kg/d CGP or 5 mg/kg/d dasatinib for three weeks; read at 16 weeks; cited from earlier work.
Data set [9] relates to eIF4E phosphorylation in BC GMPs. The conditions noted are these: background; cited from earlier work.
The test system of data set [10] is TNF production by macrophage. The conditions noted are these: stimulation with TLR agonists; background; cited from earlier work.
The test system of data set [11] is active nuclear beta-catenin in BC GMPs. The following applies: background; cited from earlier work.
Data set [12] concerns D1.1 (acute T cell leukemia). As to the kind of experiment: Cell cytotoxicity assay (CellTiter-Glo), D1.1. The class given is cell-based. The following applies: T-cell, cell viability. The procedure:
(§2) Cancer cell lines, MV-4-11 (leukemia), P116.c139 (acute T cell leukemia) and D1.1 (acute T cell leukemia), were purchased from ATCC and cultured according to supplier's recommendations. K562 cells (myelogenous leukemia) over-expressing eIF4E, were also used for the cytotoxicity assay. For cells treated for 48 hours, 5000 cells were seeded in 70 μl of growth medium in black, flat-bottom 96-well plate. For cells treated for six days, 1000 cells were seeded in 70 μl of growth medium in black, flat-bottom 96-well plate. […] 50 μl of the diluted compounds was added to the cells and incubated at 37° C. in 5% CO2. After 48 hours or six days treatment, cell viability was determined by CellTiter-Glo Luminescent Cell Viability Assay (Promega, Madison, Wis.). 120 μl of the reagent was added to the cells and luminescence was measured using Tecan Safire Reader. Data was analysed with Graphpad Prism software and the figures represented indicate the half maximal inhibitory concentration (IC50). Error bars denote standard deviation (SD).
(In general: ATP-based viability assays read luminescence as a measure of living cells.)

In data set [13] the test system is MV-4-11, P116.c139 and D1.1 cell lines. As to the kind of experiment: Cell cytotoxicity assay, the three test cell lines taken together. In kind it is cell-based. As to the method:
as §2

Data set [14] deals with eIF4E Ser209 phosphorylation in Hela cells. The data set is described as follows: MNK cell-based assay (AlphaScreen SureFire, eIF4E Ser209 phosphorylation). The conditions noted are these: Homo sapiens; eIF4E Ser209 phosphorylation, Hela cells, 2 hours; read-out: IC50 Hela. In short, it runs like this:
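Hela cells (30,000/well) exposed to test compound in serum-free medium for 2 h at 37 °C, then lysed. Phospho-Ser209 eIF4E quantified by AlphaScreen SureFire; IC50 obtained by non-linear regression of signal versus log compound concentration.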
Background: Bead proximity is the source of the signal in Alpha formats.

The test system of data set [15] is MV-4-11 (leukemia). The data set is described as follows: Cell cytotoxicity assay (CellTiter-Glo), MV-4-11. The class given is cell-based. The conditions noted are these: Homo sapiens, cell viability. The procedure: as §2
Data set [16] has as its system P116.c139 (acute T cell leukemia). As to the kind of experiment: Cell cytotoxicity assay (CellTiter-Glo), P116.c139. The class given is cell-based. The conditions noted are these: T-cell, cell viability. The procedure: as §2
In data set [17] the test system is K562 cells (myelogenous leukemia) over-expressing eIF4E. The data set is described as follows: Cell cytotoxicity assay (CellTiter-Glo), K562. The class given is cell-based. The following applies: for IC50: Homo sapiens, cell viability. The procedure: as §2
Data set [18] deals with eIF4E phosphorylation in K562 cells. As to the kind of experiment: Western blot of eIF4E phosphorylation in K562 cells. The conditions noted are these: various concentrations, 24 h. The class given is cell-based. The procedure:
(§3) K562 cell line was obtained from the ATCC, and grown in RPMI supplemented with 10% FCS, L-glutamine, and penicillin/streptomycin.
(§4) Exponentially growing cells were plated at 2×10^5 cells/ml, and whole cell lysate processed for western blot analysis using antibodies recognizing eIF4E, phospho-eIF4E (Cell signaling Technology),

Data set [19] concerns the target T1, BCR-ABL (Homo sapiens, UniProt P00519).
T1 construct: host or cells: K562; the other entry of the earlier key: BCR (P11274, Breakpoint cluster region protein)
The data set is described as follows: Western blot of CrK1 phosphorylation (BCR-ABL activity) in K562 cells. The class given is cell-based. As to the method:
as §3, §4

Data set [20] has as its system nuclear active beta-catenin in BC-CML primary cells. As to the kind of experiment: Immunofluorescence of nuclear active beta-catenin in BC-CML primary cells. The class given is cell-based, human. The text has this:
Cord Blood (CB) samples were purchased from the Singapore Cord Blood bank. CML samples were the Singapore General Hospital after signed informed consent under local IRB-approved procedures. MNCs were obtained using Ficoll separation, and CD34^+ cells selected by immunomagnetic beads (Miltenyi Biotech, Germany).
Cells (1×10^5) were cytospun onto glass slides, fixed with 4% paraformaldehye, and stained with mouse monoclonal antibodies against activated β-catenin (clone 8E7, Millipore, UK), or rabbit monoclonal antibodies against phospho-eIF4E S209 (EP2151Y, Abcam, UK). Slides were then stained with either PE-conjugated anti-mouse or FITC-conjugated anti-rabbit antibodies. Images were obtained with the use of a fluorescence microscope (Olympus IX71S1F3) at 40× magnification.

The values below come from US20190211020A1 (Agency for Science, Technology and Research, priority 2012, published 2019).

Each structure is given as a SMILES string. Entries after “also recorded” stand apart in the source; their conditions may differ. Like-named read-outs stand apart in the source and are kept apart here.

T1 sequence (P00519 with tags, fused parts or gaps): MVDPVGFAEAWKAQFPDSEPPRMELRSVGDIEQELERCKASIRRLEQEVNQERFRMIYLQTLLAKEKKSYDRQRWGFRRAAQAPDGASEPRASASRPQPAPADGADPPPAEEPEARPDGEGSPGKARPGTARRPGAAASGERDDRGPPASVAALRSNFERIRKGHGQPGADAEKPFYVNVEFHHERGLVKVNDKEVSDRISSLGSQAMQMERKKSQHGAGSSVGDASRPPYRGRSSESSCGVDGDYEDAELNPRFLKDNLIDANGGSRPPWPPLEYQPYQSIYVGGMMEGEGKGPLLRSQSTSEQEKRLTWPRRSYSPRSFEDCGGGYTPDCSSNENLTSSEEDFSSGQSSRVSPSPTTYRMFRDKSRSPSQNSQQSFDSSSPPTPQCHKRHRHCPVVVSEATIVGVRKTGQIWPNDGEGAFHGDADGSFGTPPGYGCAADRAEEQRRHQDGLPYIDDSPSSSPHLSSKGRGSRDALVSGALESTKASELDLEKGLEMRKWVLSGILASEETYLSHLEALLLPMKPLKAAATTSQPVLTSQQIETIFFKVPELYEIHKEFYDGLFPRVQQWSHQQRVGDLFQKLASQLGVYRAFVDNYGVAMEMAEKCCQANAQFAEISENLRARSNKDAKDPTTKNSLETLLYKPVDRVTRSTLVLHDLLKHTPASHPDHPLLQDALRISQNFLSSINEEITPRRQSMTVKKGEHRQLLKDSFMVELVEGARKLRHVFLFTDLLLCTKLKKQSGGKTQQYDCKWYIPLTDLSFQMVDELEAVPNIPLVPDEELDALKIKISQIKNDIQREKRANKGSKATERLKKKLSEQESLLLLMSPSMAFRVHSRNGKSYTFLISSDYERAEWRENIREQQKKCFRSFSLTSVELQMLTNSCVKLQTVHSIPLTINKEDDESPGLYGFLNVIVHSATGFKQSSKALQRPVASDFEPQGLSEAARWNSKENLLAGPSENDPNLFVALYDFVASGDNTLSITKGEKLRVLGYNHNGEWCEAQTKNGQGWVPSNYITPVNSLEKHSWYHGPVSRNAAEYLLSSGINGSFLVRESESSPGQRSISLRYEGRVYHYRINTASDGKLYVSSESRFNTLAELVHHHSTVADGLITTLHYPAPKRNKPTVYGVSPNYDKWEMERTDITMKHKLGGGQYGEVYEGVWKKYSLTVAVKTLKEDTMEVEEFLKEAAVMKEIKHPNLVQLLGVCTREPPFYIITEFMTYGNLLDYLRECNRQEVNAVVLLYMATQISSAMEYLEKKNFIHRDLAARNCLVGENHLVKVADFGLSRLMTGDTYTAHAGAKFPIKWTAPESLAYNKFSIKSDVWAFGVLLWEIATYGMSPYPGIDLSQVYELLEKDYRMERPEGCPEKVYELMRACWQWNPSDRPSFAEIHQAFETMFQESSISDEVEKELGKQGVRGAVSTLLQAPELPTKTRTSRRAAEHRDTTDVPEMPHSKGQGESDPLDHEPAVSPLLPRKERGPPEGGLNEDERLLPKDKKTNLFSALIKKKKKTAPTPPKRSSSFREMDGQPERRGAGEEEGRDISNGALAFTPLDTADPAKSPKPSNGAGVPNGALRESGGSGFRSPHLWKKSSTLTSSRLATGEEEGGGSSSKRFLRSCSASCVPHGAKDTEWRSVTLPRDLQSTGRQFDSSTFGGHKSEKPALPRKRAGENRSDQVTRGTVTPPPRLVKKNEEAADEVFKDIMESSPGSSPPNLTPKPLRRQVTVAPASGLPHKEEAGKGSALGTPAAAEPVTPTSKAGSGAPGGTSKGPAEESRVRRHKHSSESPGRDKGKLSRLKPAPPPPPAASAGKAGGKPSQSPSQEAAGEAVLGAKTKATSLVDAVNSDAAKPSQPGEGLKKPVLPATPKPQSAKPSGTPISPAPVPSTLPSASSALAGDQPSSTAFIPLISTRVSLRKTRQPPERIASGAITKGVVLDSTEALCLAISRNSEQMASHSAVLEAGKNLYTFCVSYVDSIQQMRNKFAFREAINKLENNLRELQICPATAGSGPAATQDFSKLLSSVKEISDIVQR

Regarding `CC[n+]1c(/C=C/N(C)c2ccccc2)n(-c2ccccc2)c2ccc(-c3nc4ccccc4s3)cc21.[I-]` [AKT inhibitor IV], the “eIF4E-mediated increases in beta-catenin transcriptional activity” value in data set [1] is “prevented eIF4E-mediated increases in beta-catenin transcriptional activity”.

`Nc1ncnc2n[nH]c(Nc3ccc(F)cc3)c12` [CGP57380]: in data set [2], the “ability of CD34+ BC cells to serially replate for more than 8 weeks in methylcellulose” value is recorded as “impaired the ability”. Further, the “eIF4G levels in brain sections from Nlgn3 knock-out mice” value in data set [3] is “elevation in eIF4G levels; also recorded: elevated eIF4G levels”. Besides, the “eIF4E phosphorylation in cerebellar brain sections” value in data set [4] is recorded as “inhibit eIF4E phosphorylation”. Moreover, the “ability of normal CD34+ cells to serially replate” value in [5] is “not”. The “ability of BC CD34+ CML cells to engraft NSG mice after in vitro treatment” value in data set [6] was “retarded their ability to engraft NSG mice”. In addition, the “ability of normal cord blood CD34+ cells to engraft NSG mice after in vitro treatment” value in data set [7] is given as “not”. Further, in data set [8], the “serial transplantation of BC cells in NSG mice after in vivo treatment” value is “prevented BC cells from serially transplanting NSG mice”. Besides, the “eIF4E phosphorylation in BC GMPs” value in data set [9] was “inhibited eIF4E phosphorylation”. The “TNF production / release by macrophage” value in data set [10] is given as “inhibited; also recorded: inhibits the release of TNF alpha”. In addition, the “accumulation of active nuclear beta-catenin in BC GMPs” value in data set [11] is given as “prevents accumulation of active nuclear beta-catenin”.

Broadly, the IC50 is the concentration that gives 50% inhibition. Regarding `CN1CCN(C(=O)c2ccc(-c3ccn4ncc(-c5ccc(C#N)cc5)c4n3)cc2)CC1` [Example 176, 4-(5-(4-(4-methylpiperazine-1-carbonyl)phenyl)pyrazolo[1,5-a]pyrimidin-3-yl)benzonitrile], the IC50 in [12] (144 h, 6 days, read-out: IC50 after 6 days of treatment, D1.1) was 800 nM; in [12] (48 hours, read-out: IC50 after 48 hours of treatment, D1.1), 1000 nM; in [13] (Homo sapiens, MV4-11, regardless of the treatment duration (48 hours or 6 days)), at most 1000 nM; in data set [14], below 1000 nM; in data set [15] (MV4-11, 144 h, 6 days, read-out: IC50 after 6 days of treatment, MV-4-11), 400 nM; in [15] (MV4-11, 48 hours, read-out: IC50 after 48 hours of treatment, MV-4-11), 1000 nM. In addition, the IC50 in [16] (144 h, 6 days, read-out: IC50 after 6 days of treatment, P116.c139) is 100 nM; in data set [16] (48 hours, read-out: IC50 after 48 hours of treatment, P116.c139), 400 nM; in [17] (K562, 144 h, 6 days, read-out: IC50 after 6 days of treatment, K562), 3400 nM; in data set [17] (K562, 48 hours, read-out: IC50 after 48 hours of treatment, K562), 14200 nM. Also, the “relative cytotoxicity amongst the four compounds” value in data set [13] was “most cytotoxic”. In addition, the “change of IC50 when treatment duration was extended from 48 hours to 6 days, K562” value in data set [17] (K562 cells over-expressing eIF4E) is “reduced by more than half”. In addition, the “eIF4E phosphorylation in K562 (BC-CML cell line), Western blot” value in data set [18] is “prevent eIF4E phosphorylation; also recorded: decrease in eIF4E phosphorylation”. Further, the “BCR-ABL activity (phosphorylation of CrK1) in K562 cells” value in [19] is given as “decrease in BCR-ABL activity”. For the same compound, in [20], the “nuclear active beta-catenin in BC-CML primary cells, immunofluorescence” value is “decrease in nuclear beta-catenin accumulation”.

As for `Cc1nc(Nc2ncc(C(=O)Nc3c(C)cccc3Cl)s2)cc(N2CCN(CCO)CC2)n1` [dasatinib], the “ability of CD34+ BC cells to serially replate for more than 8 weeks in methylcellulose” value in data set [2] was “only partially impaired”. For the same compound, the “serial transplantation of BC cells in NSG mice after in vivo treatment” value in [8] is reported as “not”. Further, the “eIF4E phosphorylation in BC GMPs” value in data set [9] was “not”. Moreover, the “accumulation of active nuclear beta-catenin in BC GMPs” value in [11] is “not”.
